# Laboratory results as given in patent publication US7423172B2 (Laboratorios Salvat, S.A., priority 2004, dated 2008).
# How the values were obtained:
# GST-hPPARγ2 = molecular target: T1, GST-hPPARγ2 (Homo sapiens, UniProt P37231); experiment: PPARγ2 binding assay ([3H]BRL-49853 displacement); conditions: GST-hPPARγ2, [3H]BRL-49853 100 nM, 3 h at 4° C.; read-out: Affinity PPARγ
# T1 construct: the complete cDNA of the human PPAR was cloned into pGEX4T2; made in house; host or cells: Escherichia coli BL21 (DE3)
# T1 sequence (P37231 1-505): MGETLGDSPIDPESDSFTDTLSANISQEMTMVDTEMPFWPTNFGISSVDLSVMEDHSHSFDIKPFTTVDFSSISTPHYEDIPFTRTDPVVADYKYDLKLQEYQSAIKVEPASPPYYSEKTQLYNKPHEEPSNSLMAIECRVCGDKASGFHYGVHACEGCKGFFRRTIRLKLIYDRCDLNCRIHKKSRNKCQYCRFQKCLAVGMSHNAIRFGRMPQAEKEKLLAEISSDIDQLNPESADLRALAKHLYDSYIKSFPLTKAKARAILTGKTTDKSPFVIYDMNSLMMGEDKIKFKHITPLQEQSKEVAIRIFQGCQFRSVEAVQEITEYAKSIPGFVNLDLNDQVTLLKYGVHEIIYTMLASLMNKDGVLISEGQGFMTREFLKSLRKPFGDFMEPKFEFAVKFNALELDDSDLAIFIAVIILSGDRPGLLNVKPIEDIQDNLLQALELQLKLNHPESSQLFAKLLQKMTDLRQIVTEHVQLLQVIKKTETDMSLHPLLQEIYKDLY
# Procedure: The cDNA encoding for the open reading frame of the hPPARγ2 was amplified by PCR (polymerase chain reaction) and inserted in the plasmid pGEX-4T-2. This construction (pGEX-hPPARγ) was introduced into E. coli where it was overexpressed and semipurified as a fusion protein with glutathione S-transferase (GST) (Elbrecht et al., J. Biol. Chem. 1999, 274, 7913-7922). The binding of the compounds to the GST-hPPARγ2 s was determined by modifications in the method described by Lehmann et al. (J. Biol. Chem. 1995, 270, 12953-12957). The receptors (2.5 μg) were incubated in 96-well plates in the presence or in the absence of the products with [^3H]BRL-49853 (100 nM) for 3 h at 4° C., in a final volume of 200 μL of buffer Tris-HCl 10 mM pH:8.0, containing KCl 50 mM and DTT 10 mM. Non-specific binding was determined in the presence of BRL49853 100 μM. The reaction mixture was transferred to a Multiscreen Durapore (Millipore) microplate containing glutathione-Sepharose 4B in every well. The reaction mixture was left to incubate with the resin during 10 min, and then centrifuged at 735 g during 2 min. To dissociate the receptor bound to the resin, reduced glutathione 10 mM is added and incubated during 10 min. The receptor was eluted by centrifugation. Then, scintillation liquid was added to the elution and the contained radioactivity was quantified by liquid scintillation spectroscopy (Microbeta Wallac, Perkin Elmer).
# The human PPAR cDNA was amplified through RT-PCR. For hPPARγ2, RNA was obtained from human white adipose tissue. Each amplified fragment was cloned into pBluescript (Stratagene®) and sequenced. One clone for each construction was selected and used as template for further subcloning and PCR amplifications.
# GST-Fused Protein Construction
# To generate this chimeric protein, the complete cDNA of the human PPAR was cloned into pGEX4T2 (Amersham Biosciences). The fragment was obtained from the pBluescript-cDNAs clones digested with endonucleases. To assess the plasmid identity and to ensure the in-phase cloning of the proteins, pGEX construction was sequenced. GST-hPPARγ2 fusion protein was generated in Escherichia coli (BL21 strain DE3). Cells were cultured in LB medium to a density of A600=1.6 odu, and induced for overexpression by addition of isopropyl-1-thio-β-D-galactopyranoside (IPTG)-induced cultures to a final concentration of 0.5 mM. The IPTG-induced cultures were grown at room temperature o/n, before cells were harvested by centrifugation at 5000 g for 15 min. After sonication, the GST-fusion protein was purified from the cell pellet using glutathione-Sepharose beads, following the procedure recommended by the manufacturer (Amersham Pharmacia Biotech). Excess of gluthatione was removed o/n by dyalisis at 4° C. Receptor purity was visualized by SDS-PAGE and protein content was determined by Bradford method. Receptor aliquots were stored at −80° C. until use.
# [1] = molecular target: T2, GAL4 DNA binding domain fused to the PPARγ LBD (Homo sapiens, UniProt P37231); experiment: LBD-hPPARs transactivation assay (GAL4-luciferase reporter in COS-7 cells); format: cell-based; conditions: 48 h
# T2 construct: expressed in transfected cells; host or cells: COS-7
# T2 sequence (P37231 238-503 limits assumed): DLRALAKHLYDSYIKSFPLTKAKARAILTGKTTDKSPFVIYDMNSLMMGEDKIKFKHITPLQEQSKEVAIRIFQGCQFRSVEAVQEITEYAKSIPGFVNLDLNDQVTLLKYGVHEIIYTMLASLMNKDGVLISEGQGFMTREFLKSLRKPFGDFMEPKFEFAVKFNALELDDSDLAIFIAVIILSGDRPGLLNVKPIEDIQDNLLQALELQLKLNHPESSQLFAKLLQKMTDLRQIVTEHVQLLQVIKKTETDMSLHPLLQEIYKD
# Excerpt: LBD-hPPARs Transactivation Assay
# COS-7 cells were cultivated in 24-well plates and transfected with the pFACMV plasmids that encode the chimeric proteins containing the GAL4 DNA binding domain fused to the PPARγ LBD. The reporter plasmid for the foregoing constructions was pFR-Luc, which contains five repetitions of the GAL4-response element in front of a promoter that controls the transcription of the luciferase gene. Lipofectamine was used as a transfection agent. The plasmids of the chimeric receptors and the reporter gene were inserted in the cells by transitory transfection in COS-7 cells in culture.
Structure (SMILES),Ki (GST-hPPARγ2),Functional activity PPARγ [1]
CCC(=O)N(CCOc1ccc(C[C@H](Nc2ccccc2C(=O)c2ccccc2)C(=O)O)cc1)c1ccc(Cl)cc1 [I_121],500 to 1500 nM,ANTAGONIST
"Cc1ccc(N(CCOc2ccc(C[C@H](Nc3ccccc3C(=O)c3ccccc3)C(=O)O)cc2)C(=O)C(C)C)cc1 [I_149, (S)-2-(2-Benzoylphenylamino)-3-{4-[2-(isobutyryl-p-tolylamino)ethoxy]-phenyl}propionic acid]",> 1500 nM,
"O=C(c1ccccc1)c1ccccc1N[C@@H](Cc1ccc(OCCCN(Cc2ccccc2)C(=O)Cc2cccnc2)cc1)C(=O)O [I_198, (S)-2-(2-Benzoylphenylamino)-3-(4-{3-[benzyl-(2-pyridin-3-ylacetyl)-amino]propoxy}phenyl)propionic acid]",500 to 1500 nM,PARTIAL AGONIST
"O=C(c1ccccc1)c1ccccc1N[C@@H](Cc1ccc(OCCN(Cc2ccccc2F)c2ccccc2Cl)cc1)C(=O)O [I_379, (S)-2-(2-Benzoylphenylamino)-3-(4-{2-[(2-chlorophenyl)-(2-fluorobenzyl)-amino]ethoxy}phenyl)propionic acid]",500 to 1500 nM,
"COc1cccc(CN(CCCOc2ccc(C[C@H](Nc3ccccc3C(=O)c3ccccc3)C(=O)O)cc2)c2ccccc2)c1 [I_391, (S)-2-(2-Benzoylphenylamino)-3-(4-{3-[(3-methoxybenzyl)phenylamino]-propoxy}phenyl)propionic acid]",500 to 1500 nM,
"O=C(c1ccccc1)c1ccccc1N[C@@H](Cc1ccc(OCCCN(Cc2ccccc2)CC2CC2)cc1)C(=O)O [I_418, (S)-2-(2-Benzoylphenylamino)-3-{4-[3-(benzylcyclopropylmethylamino)-propoxy]phenyl}propionic acid]",500 to 1500 nM,PARTIAL AGONIST
"CC(=O)N(CCOc1ccc(C[C@H](Nc2ccccc2C(=O)c2ccccc2)C(=O)O)cc1)c1ccc2ccccc2c1 [I_438, (S)-3-{4-[2-(Acetylnaphthalen-2-ylamino)ethoxy]phenyl}-2-(2-benzoylphenylamino)propionic acid]",500 to 1500 nM,
"C/C=C/C(=O)N(CCOc1ccc(C[C@H](Nc2ccccc2C(=O)c2ccccc2)C(=O)O)cc1)c1cccc(SC)c1 [I_440, (S)-2-(2-Benzoylphenylamino)-3-(4-{2-[but-2-(E)-enoyl-(3-methylsulfanylphenyl)amino]ethoxy}-phenyl)propionic acid]",500 to 1500 nM,
"COCCC(=O)N(CCOc1ccc(C[C@H](Nc2ccccc2C(=O)c2ccccc2)C(=O)O)cc1)Cc1ccccc1 [I_469, (S)-2-(2-Benzoylphenylamino)-3-(4-{2-[benzyl-(3-methoxypropionyl)-amino]ethoxy}phenyl)propionic acid]",500 to 1500 nM,

# More lines, now with the values ahead:
Ki (GST-hPPARγ2),Functional activity PPARγ [1],Structure (SMILES)
500 to 1500 nM,,"C=CC(=O)N(CCCOc1ccc(C[C@H](Nc2ccccc2C(=O)c2ccccc2)C(=O)O)cc1)c1ccc(Cl)cc1 [I_128, (S)-3-(4-{3-[Acryloyl-(4-chlorophenyl)-amino]propoxy}phenyl)-2-(2-benzoylphenylamino)propionic acid]"
< 500 nM,,"O=C(c1ccccc1)c1ccccc1N[C@@H](Cc1ccc(OCCCN(Cc2ccccc2)C(=O)C#Cc2ccccc2)cc1)C(=O)O [I_178, (S)-2-(2-Benzoylphenylamino)-3-(4-{3-[benzyl-(3-phenylpropynoyl)amino]-propoxy}phenyl)propionic acid]"
< 500 nM,AGONIST,"O=C(c1ccccc1)c1ccccc1N[C@@H](Cc1ccc(OCCCN(CC2CC2)C(=O)Cc2ccccc2)cc1)C(=O)O [I_262, (S)-2-(2-Benzoylphenylamino)-3-{4-[3-(cyclopropylmethylphenylacetylamino)propoxy]phenyl}propionic acid]"
< 500 nM,AGONIST,"O=C(c1ccccc1)c1ccccc1N[C@@H](Cc1ccc(OCCN(CC2CC2)C(=O)C=Cc2cccs2)cc1)C(=O)O [I_265, (S)-2-(2-Benzoylphenylamino)-3-(4-{2-[cyclopropylmethyl-(3-thiophen-2-ylacryloyl)amino]ethoxy}phenyl)-propionic acid]"
< 500 nM,,"O=C(c1ccccc1)c1ccccc1N[C@@H](Cc1ccc(OCCCN(CC2CC2)C(=O)C2CCCC2)cc1)C(=O)O [I_280, (S)-2-(2-Benzoylphenylamino)-3-{4-[3-(cyclopentanecarbonylcyclopropylmethylamino)propoxy]phenyl}propionic acid]"
< 500 nM,,"O=C(c1ccccc1)c1ccccc1N[C@@H](Cc1ccc(OCCN(C(=O)c2cc3ccccc3cn2)c2ccccc2)cc1)C(=O)O [I_303, (S)-2-(2-Benzoylphenylamino)-3-(4-{2-[(isoquinoline-3-carbonyl)-phenylamino]ethoxy}phenyl)propionic acid]"
< 500 nM,PARTIAL AGONIST,"CC(C)(C)N(CCOc1ccc(C[C@H](Nc2ccccc2C(=O)c2ccccc2)C(=O)O)cc1)C(=O)C1CCC1 [I_375, (S)-2-(2-Benzoylphenylamino)-3-{4-[2-(tert-butylcyclobutanecarbonylamino)-ethoxy]phenyl}propionic acid]"
< 500 nM,ANTAGONIST,"Cc1cccc(N(CCCOc2ccc(C[C@H](Nc3ccccc3C(=O)c3ccccc3)C(=O)O)cc2)CC(C)C)c1 [I_410, (S)-2-(2-Benzoylphenylamino)-3-(4-{3-[isobutyl-m-tolylamino]propoxy}-phenyl)propionic acid]"
< 500 nM,,"Cc1ccccc1N(CCOc1ccc(C[C@H](Nc2ccccc2C(=O)c2ccccc2)C(=O)O)cc1)CC1CCC1 [I_412, (S)-2-(2-Benzoylphenylamino)-3-{4-[2-(cyclobutylmethyl-o-tolylamino)-ethoxy]phenyl}propionic acid]"
< 500 nM,,"O=C(c1ccccc1)c1ccccc1N[C@@H](Cc1ccc(OCCN(Cc2cccs2)c2ccccc2)cc1)C(=O)O [I_467, (S)-2-(2-Benzoylphenylamino)-3-{4-[2-(phenylthiophen-2-ylmethylamino)-ethoxy]phenyl}propionic acid]"
